Test results published in article PMC12720774, “Detergents alter the stability and lipid binding properties of the CD1d immunoreceptor” (Protein Science : A Publication of the Protein Society, 2025).
Several values for one entry are separate records, joined by “and”; a condition that tells them apart may be missing. Equal entries are not always repeated. Where two headings read alike, the source gives them in different places. Each block holds one compound with its values, some of them ahead of it.

Key:
[1] = approximate, ref Anatrace catalogue, cited from earlier work
[2] = biological target: T1, AF647‐labeled hCD1d (Homo sapiens, UniProt P15813+P61769); assay: Microscale thermophoresis (MST) binding assay
T1 construct: TEV protease cleavage site ENLYFQS (C); BirA biotinylation site (C); His7 (C); made in house; host or cells: TurboCHO cells (GenScript)
Text: (§1) The experimental limitations of ITF, such as low instrument sensitivity, high sample consumption, signal overlap with some ligands, and low throughput (Fossum et al., [2023]), made it necessary to employ alternative, complementary assays to quantify detergent binding to hCD1d. […] MST measures the diffusion of fluorescent molecules in response to microscopic temperature gradients (Seidel et al., [2013]). When a protein forms a complex with a ligand, changes in hydrodynamic properties, charge, or solvation energy alter its thermophoretic behavior, allowing detection of binding events. To perform MST experiments, Alexa Fluor 647 (AF647) dye was covalently attached to the primary amines of hCD1d via standard N‐hydroxysuccinimide coupling chemistry (Anderson et al., [1964]). The concentration of AF647‐hCD1d was kept constant, and the change in MST signal was measured as a function of increasing detergent concentration (Figure S3). Like ITF, any lipid or detergent that destabilizes CD1 can also alter the MST signal since unfolding changes the protein's Stokes radius and its thermophoretic behavior. […] This is why we compare MST results with ITF and nanoDSF, as described below.
(§2) For MST, hCD1d was fluorescently labeled with AF647‐NHS Ester (Invitrogen #A20006). Briefly, a 10 mM stock of AF647‐NHS was prepared in anhydrous DMSO. Then, 100 μL of 50 μM hCD1d in 1X PBS pH 7.4 was mixed with 1 μL of 10 mM AF647‐NHS (1:2 molar ratio of protein: dye). The mixture was allowed to react for 1 h in the dark at 25°C. Unreacted dye was removed from the protein–dye conjugate by performing size exclusion chromatography in the dark with a Superdex 200 Increase 10/300 GL column at a flow rate of 0.5 mL/min in SEC buffer (100 mM NaCl, 20 mM sodium phosphate, pH 7.2). The degree of labeling was determined by a NanoDrop spectrophotometer at A647 nm (dye absorbance) and A280 nm (hCD1d absorbance). The degree of labeling was determined from the ratio of dye concentration to protein concentration. The degree of labeling was ~75%.
(§3) MST experiments were performed using a Monolith NT.115 instrument (NanoTemper Technologies) using Monolith standard capillaries and the red excitation laser setup. The following settings were applied for all MST experiments: excitation power: 30%–50%, MST power: medium, before MST time: 3 s, MST on time (IR laser): 20 seconds, and after MST time: 1 s. MST measurements were analyzed using the Monolith Affinity Analysis software v2.3 and exported for plotting in GraphPad Prism v10.1. Three replicates were performed, and data are presented as the mean ± standard deviation (n = 3).
(§4) MST measurements of 100 nM AF647‐hCD1d were acquired in the absence and presence of detergents in 1X PBS pH 7.4 at 25°C. Prior to data acquisition, hCD1d and detergent or lipid samples were incubated at 37°C overnight (~12 h) to simulate in vitro and in vivo loading conditions. […] For 18:1 LPC experiments: MST data of 100 nM AF647‐hCD1d were acquired in the absence and presence of 18:1 LPC in 1X PBS pH 7.4 at 25°C.

[3] = biological target: T2, recombinant human CD1d ectodomain/β2m complex (hCD1d) (Homo sapiens, UniProt P15813+P61769); assay: Intrinsic tryptophan fluorescence (ITF) binding assay
T2 construct: TEV protease cleavage site ENLYFQS (C); BirA biotinylation site (C); His7 (C); made in house; host or cells: TurboCHO cells (GenScript)
Protocol: (§5) For ITF assays, the concentration of hCD1d was kept constant, and intrinsic Trp fluorescence (excitation at 285 nm, emission at 335 nm) was measured as a function of increasing detergent concentration (Fossum et al., [2023]) (Figure S2). The change in relative fluorescence intensity (F − F 0/F 0) provides an indication of binding. […] This was due to limited detergent solubility and decreased hCD1d stability in the presence of a large excess of detergent (see below). […] SDS was the exception, for which Trp fluorescence of hCD1d decreased with added detergent. This could indicate a unique conformational change or destabilization of the protein.
(§6) ITF spectra were recorded from 300 to 500 nm using a Horiba FL3‐21 Fluorometer with the excitation wavelength of 285 nm and excitation/emission slits of 6.2 nm. Fluorescence spectra of 50 to 100 nM hCD1d were acquired in the absence and presence of detergents in 1X PBS pH 7.4 at 25°C. Prior to data acquisition, hCD1d and detergent or lipid samples were incubated at 37°C overnight (~12 h) to simulate in vitro and in vivo loading conditions. […] For 18:1 LPC experiments, fluorescence spectra of 100 nM hCD1d were acquired in the absence and presence of 18:1 LPC in 1X PBS pH 7.4 at 25°C. […] For all ITF experiments, the change in fluorescence signal (F − F 0/F 0) was determined at 335 nm. Three replicates were performed, and data are presented as the mean ± standard deviation (n = 3). K D values were fitted with non‐linear regression in GraphPad Prism v10.1.

[4] = biological target: T3, AF647‐labeled hCD1d (Homo sapiens, UniProt P15813); assay: Microscale thermophoresis (MST) binding assay
T3 construct: TEV protease cleavage site ENLYFQS (C); BirA biotinylation site (C); His7 (C); made in house; host or cells: TurboCHO cells (GenScript)
Text: as §1, §2, §3, §4

[5] = biological target: T4, recombinant human CD1d ectodomain/β2m complex (hCD1d) (Homo sapiens, UniProt P15813); assay: Intrinsic tryptophan fluorescence (ITF) binding assay; conditions: detergent with 100 nM hCD1d, 25°C, 1X PBS pH 7.4; apparent; read-out: K D (ITF)
T4 construct: TEV protease cleavage site ENLYFQS (C); BirA biotinylation site (C); His7 (C); made in house; host or cells: TurboCHO cells (GenScript)
Protocol: as §5, §6

[6] = Figure 5B, detergent binding to hCD1d, read-out: MST - Kd (uM) average
[7] = detergent with 100 nM AF647‐labeled hCD1d, 25°C, apparent, read-out: K D (MST)

T2 sequence (P61769+P15813 fused): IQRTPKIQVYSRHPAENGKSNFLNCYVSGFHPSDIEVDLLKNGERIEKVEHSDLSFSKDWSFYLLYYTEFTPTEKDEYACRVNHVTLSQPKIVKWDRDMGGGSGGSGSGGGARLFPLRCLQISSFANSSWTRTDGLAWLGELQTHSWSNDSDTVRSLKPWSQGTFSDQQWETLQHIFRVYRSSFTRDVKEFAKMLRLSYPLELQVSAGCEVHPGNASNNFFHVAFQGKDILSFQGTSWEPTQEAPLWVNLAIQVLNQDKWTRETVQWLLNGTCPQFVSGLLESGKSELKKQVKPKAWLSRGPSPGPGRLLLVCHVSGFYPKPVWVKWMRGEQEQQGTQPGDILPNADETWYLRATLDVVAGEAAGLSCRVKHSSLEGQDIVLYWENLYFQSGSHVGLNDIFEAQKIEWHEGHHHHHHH
T1 sequence (P61769+P15813 fused): as above
T3 sequence (P15813 whole entry, looked up): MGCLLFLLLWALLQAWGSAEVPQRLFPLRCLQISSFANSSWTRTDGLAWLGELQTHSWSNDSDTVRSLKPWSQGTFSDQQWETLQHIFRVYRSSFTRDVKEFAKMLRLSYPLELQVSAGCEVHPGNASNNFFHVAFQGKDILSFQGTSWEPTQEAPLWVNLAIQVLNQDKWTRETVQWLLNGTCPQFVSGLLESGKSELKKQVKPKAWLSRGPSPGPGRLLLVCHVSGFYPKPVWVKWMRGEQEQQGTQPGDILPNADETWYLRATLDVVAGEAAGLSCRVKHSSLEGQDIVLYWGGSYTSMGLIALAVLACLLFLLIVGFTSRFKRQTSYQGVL
T4 sequence (P15813 whole entry, looked up, the tested form may be a part, one chain of several): as the sequence (P15813 whole entry, looked up) above

Fnorm (rep 1-3) ([2]; 6.10352e-9 M detergent): 805.067 ‰ and 809.857 ‰ and 804.507 ‰ | Fnorm (rep 1-3) ([2]; 1.2207e-8 M detergent): 806.458 ‰ and 809.351 ‰ and 805.026 ‰ | Fnorm (rep 1-3) ([2]; 2.44141e-8 M detergent): 805.306 ‰ and 809.655 ‰ and 805.09 ‰ | Fnorm (rep 1-3) ([2]; 4.88281e-8 M detergent): 807.116 ‰ and 806.609 ‰ and 806.1 ‰ | Fnorm (rep 1-3) ([2]; 9.76563e-8 M detergent): 804.905 ‰ and 807.619 ‰ and 802.759 ‰ | Fnorm (rep 1-3) ([2]; 1.95313e-7 M detergent): 804.684 ‰ and 807.405 ‰ and 803.094 ‰ | Fnorm (rep 1-3) ([2]; 3.90625e-7 M detergent): 805.673 ‰ and 808.266 ‰ and 805.393 ‰ | Fnorm (rep 1-3) ([2]; 7.8125e-7 M detergent): 808.872 ‰ and 807.822 ‰ and 807.967 ‰ | Fnorm (rep 1-3) ([2]; 1.5625e-6 M detergent): 807.024 ‰ and 810.305 ‰ and 805.453 ‰ | Fnorm (rep 1-3) ([2]; 3.125e-6 M detergent): 820.597 ‰ and 825.116 ‰ and 819.282 ‰ | Fnorm (rep 1-3) ([2]; 6.25e-6 M detergent): 847.228 ‰ and 846.294 ‰ and 841.909 ‰ | Fnorm (rep 1-3) ([2]; 1.25e-5 M detergent): 846.069 ‰ and 855.71 ‰ and 840.031 ‰ | Fnorm (rep 1-3) ([2]; 2.5e-5 M detergent): 844.894 ‰ and 848.667 ‰ and 837.578 ‰ | Fnorm (rep 1-3) ([2]; 5e-5 M detergent): 846.685 ‰ and 845.769 ‰ and 838.247 ‰ | Fnorm (rep 1-3) ([2]; 0.0001 M detergent): 846.112 ‰ and 846.019 ‰ and 837.99 ‰ | Fnorm (rep 1-3) ([2]; 0.0002 M detergent): 847.908 ‰ and 844.822 ‰ and 840.824 ‰ | Kd [2, 6]: 3.24 µM | Kd [2, 7]: 3.2 ± 0.1 µM | F-F0/F0 (rep 1-3) ([3]; 6.1035e-9 M detergent): 0 | F-F0/F0 (rep 1-3) ([3]; 7.8125e-7 M detergent): 0.1677 and 0.1078 and 0.1575 | F-F0/F0 (rep 1-3) ([3]; 1.5625e-6 M detergent): 0.2804 and 0.1624 and 0.168 | F-F0/F0 (rep 1-3) ([3]; 3.125e-6 M detergent): 0.6451 and 0.4306 and 0.4698 | F-F0/F0 (rep 1-3) ([3]; 6.25e-6 M detergent): 0.9699 and 0.8276 and 0.7611 | F-F0/F0 (rep 1-3) ([3]; 1.25e-5 M detergent): 0.863 and 0.6745 and 0.8384 | F-F0/F0 (rep 1-3) ([3]; 2.5e-5 M detergent): 1.041 and 0.837 and 0.8177 | F-F0/F0 (rep 1-3) ([3]; 5e-5 M detergent): 1.186 and 0.8687 and 0.9274 | F-F0/F0 (rep 1-3) ([3]; 0.0001 M detergent): 1.309 and 1.057 and 0.8857 | F-F0/F0 (rep 1-3) ([3]; 0.0002 M detergent): 1.646 and 1.2423 and 1.107 | Kd ([3]; Figure 5A, detergent binding to hCD1d, read-out: ITF - Kd (uM) average): 4.59 µM | Kd ([3]; detergent with 100 nM hCD1d, 25°C, 1X PBS pH 7.4, apparent, read-out: K D (ITF)): 4.6 ± 0.9 µM
Compound: Tween 80
CMC [1]: 12 µM | CMC ([1]; weight/volume): 0.0016%

Compound: C[C@H](CCC(=O)O)[C@H]1CC[C@H]2[C@@H]3CC[C@@H]4C[C@H](O)CC[C@]4(C)[C@H]3C[C@H](O)[C@]12C [Deoxycholate, sodium deoxycholate]
Kd [4, 6]: 103 µM | Kd [4, 7]: > 10000 µM | binding to hCD1d by MST (in words) [2]: observable binding | Fnorm (rep 1-3) ([2]; 3.05176e-8 M detergent): 795.701 ‰ and 796.724 ‰ and 797.98 ‰ | Fnorm (rep 1-3) ([2]; 6.10352e-8 M detergent): 794.625 ‰ and 796.029 ‰ and 797.315 ‰ | Fnorm (rep 1-3) ([2]; 1.2207e-7 M detergent): 793.156 ‰ and 796.701 ‰ and 795.845 ‰ | Fnorm (rep 1-3) ([2]; 2.44141e-7 M detergent): 795.335 ‰ and 795.616 ‰ and 795.028 ‰ | Fnorm (rep 1-3) ([2]; 4.88281e-7 M detergent): 795.887 ‰ and 794.029 ‰ and 796.702 ‰ | Fnorm (rep 1-3) ([2]; 9.76563e-7 M detergent): 796.103 ‰ and 795.392 ‰ and 796.86 ‰ | Fnorm (rep 1-3) ([2]; 1.95313e-6 M detergent): 795.057 ‰ and 792.832 ‰ and 795.608 ‰ | Fnorm (rep 1-3) ([2]; 3.90625e-6 M detergent): 796.418 ‰ and 796.702 ‰ and 795.904 ‰ | Fnorm (rep 1-3) ([2]; 7.8125e-6 M detergent): 795.548 ‰ and 798.002 ‰ and 797.636 ‰ | Fnorm (rep 1-3) ([2]; 1.5625e-5 M detergent): 795.128 ‰ and 798.849 ‰ and 799.048 ‰ | Fnorm (rep 1-3) ([2]; 3.125e-5 M detergent): 798.119 ‰ and 798.444 ‰ and 799.423 ‰ | Fnorm (rep 1-3) ([2]; 6.25e-5 M detergent): 800.962 ‰ and 799.886 ‰ and 803.305 ‰ | Fnorm (rep 1-3) ([2]; 0.000125 M detergent): 801.785 ‰ and 804.744 ‰ and 805.19 ‰ | Fnorm (rep 1-3) ([2]; 0.00025 M detergent): 804.206 ‰ and 807.083 ‰ and 805.968 ‰ | Fnorm (rep 1-3) ([2]; 0.0005 M detergent): 808.515 ‰ and 808.171 ‰ and 806.841 ‰ | Fnorm (rep 1-3) ([2]; 0.001 M detergent, 100 nM AF647‐hCD1d): 814.33 ‰ and 809.551 ‰ and 810.963 ‰ | binding to hCD1d by ITF (in words) [3]: No significant binding | Kd [5]: > 10000 µM
